Experimental findings from ChEMBL document CHEMBL1126981, “Resistance of the 2,2,2-trifluoroethoxy aryl moiety to the cytochrome P-450 metabolism in rat liver microsomes” (Bioorg Med Chem Lett, 1993) are described below.

The assay is filed under the species Rattus norvegicus. Put plainly: Inhibition of deethylase activity upon incubation with liver microsomes from phenobarbital induced rats. In kind it is functional. (Liver microsomes are a subcellular fraction often used to study metabolism.)

For orientation: IC50 means the concentration that inhibits the measured activity by half. Compound `O=c1ccc2ccc(OCC(F)(F)F)cc2o1` yielded an IC50 of 230 µM. As for `CC(=O)Nc1ccc(OCC(F)(F)F)cc1`, the figure is 100 µM.
